Biological target: T1, GAT-1 (Homo sapiens, UniProt P30531)
T1 construct: expressed in transfected cells; host or cells: SH-SY5Y (human neuroblastoma cell line), transient transfection with Lipofectamine 3000
Experiment: Tritiated [3H]GABA uptake assay in transfected SH-SY5Y cells
Format: cell-based
Conditions: CI-966 100 μM in 0.8% DMSO, 10 min at 37° C.
Text: SH-SY5Y cells (human neuroblastoma cell line) were transfected with the constructs as described in Example 1 using Lipofectamine 3000 and following manufacturer instructions. The positive control consisted of a plasmid encoding hSLC6A1 under the control of a CAG promoter expressed together with a tagRFP fluorescent protein whilst as negative control (and a matching plasmid lacking the hSLC6A1 sequence. At 2 days post transfection, SH-SY5Y cells were attested for either ICC analysis of GABA uptake assay. Briefly, ICC analysis was performed as follow: cells were fixed with 4% paraformaldehyde and stained with the primary antibodies rabbit monoclonal anti-GAT-1 (Ref: ab177483; Abcam™, Cambridge, MA, USA) at 1:250. Cells were then stained with goat anti-rabbit secondary antibodies conjugated to Alexa Fluor 488 at 1:1,000 prior to imaging. For the GABA uptake assay, cells were previously seeded on scintillating microplates. […] Cells were then treated with a mixture of tritiated and cold GABA ([3H]GABA 8 μCi/ml and 15 μM GABA final concentrations) for 10 min at 37° C. and the reaction was stopped using 1 mM cold GABA before quantification of the radioactivity with a Microbeta instrument (Perkin Elmer).

T1 sequence (P30531 whole entry): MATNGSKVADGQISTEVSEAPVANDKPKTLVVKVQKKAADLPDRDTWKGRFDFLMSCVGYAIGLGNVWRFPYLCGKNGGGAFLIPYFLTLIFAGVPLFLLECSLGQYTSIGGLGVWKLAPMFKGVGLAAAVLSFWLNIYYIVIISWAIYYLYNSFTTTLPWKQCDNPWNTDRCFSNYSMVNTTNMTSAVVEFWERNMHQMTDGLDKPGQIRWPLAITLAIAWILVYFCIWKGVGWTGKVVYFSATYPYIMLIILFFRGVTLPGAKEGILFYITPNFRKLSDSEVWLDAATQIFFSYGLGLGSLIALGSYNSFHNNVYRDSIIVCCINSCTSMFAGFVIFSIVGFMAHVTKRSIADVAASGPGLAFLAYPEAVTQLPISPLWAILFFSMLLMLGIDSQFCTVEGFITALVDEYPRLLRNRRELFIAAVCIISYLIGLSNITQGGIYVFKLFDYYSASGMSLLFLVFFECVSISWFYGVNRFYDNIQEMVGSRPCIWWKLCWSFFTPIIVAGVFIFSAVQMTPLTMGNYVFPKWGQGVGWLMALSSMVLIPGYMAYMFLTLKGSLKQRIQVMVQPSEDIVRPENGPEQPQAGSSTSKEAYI

O=C(O)C1=CCCN(CCOC(c2ccc(C(F)(F)F)cc2)c2ccc(C(F)(F)F)cc2)C1 [GAT-1 inhibitor]
uptake of [3H]GABA when cells treated with inhibitor: inhibited

— patent US20230365652A1, “Nucleic Acid Constructs, Viral Vectors and Viral Particles” (priority 2020, published 2023)
